# Measurements as given in ChEMBL document CHEMBL1955818, “Might the observed α(2A)-adrenoreceptor agonism or antagonism of allyphenyline analogues be ascribed to different molecular conformations?” (Bioorg Med Chem, 2012).
# Key:
# [1] = biological target: T1, Alpha-2B adrenergic receptor (Homo sapiens, UniProt P18089); test: Agonist activity at human adrenoceptor aplha 2B expressed in CHO cells assessed as rate of extracellular acidification by cytosensor microphysiometric analysis; type: functional, cell-based
# T1 sequence (P18089 whole entry): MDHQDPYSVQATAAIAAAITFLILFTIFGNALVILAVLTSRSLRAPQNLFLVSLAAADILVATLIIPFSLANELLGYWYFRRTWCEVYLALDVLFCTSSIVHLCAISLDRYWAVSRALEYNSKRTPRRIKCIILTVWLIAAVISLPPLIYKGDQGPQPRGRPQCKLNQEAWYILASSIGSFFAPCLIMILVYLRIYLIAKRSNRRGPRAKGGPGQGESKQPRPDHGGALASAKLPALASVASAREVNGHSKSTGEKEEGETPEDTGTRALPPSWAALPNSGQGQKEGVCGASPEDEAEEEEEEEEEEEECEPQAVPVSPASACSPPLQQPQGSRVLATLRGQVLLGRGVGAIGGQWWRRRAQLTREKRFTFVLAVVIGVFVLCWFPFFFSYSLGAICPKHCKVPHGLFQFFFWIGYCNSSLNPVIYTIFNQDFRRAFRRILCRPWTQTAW
# [2] = biological target: T2, Alpha-2B adrenergic receptor (Homo sapiens) (UniProt P18089); test: Intrinsic activity at human adrenoceptor aplha 2B expressed in CHO cells by cytosensor microphysiometric analysis relative to (-)-noradrenaline; type: cell-based
# T2 sequence (whole entry): T1 sequence (P18089 whole entry)
# [3] = biological target: T3, Alpha-2A adrenergic receptor (Homo sapiens) (UniProt P08913); details: CHO
# T3 sequence (whole entry): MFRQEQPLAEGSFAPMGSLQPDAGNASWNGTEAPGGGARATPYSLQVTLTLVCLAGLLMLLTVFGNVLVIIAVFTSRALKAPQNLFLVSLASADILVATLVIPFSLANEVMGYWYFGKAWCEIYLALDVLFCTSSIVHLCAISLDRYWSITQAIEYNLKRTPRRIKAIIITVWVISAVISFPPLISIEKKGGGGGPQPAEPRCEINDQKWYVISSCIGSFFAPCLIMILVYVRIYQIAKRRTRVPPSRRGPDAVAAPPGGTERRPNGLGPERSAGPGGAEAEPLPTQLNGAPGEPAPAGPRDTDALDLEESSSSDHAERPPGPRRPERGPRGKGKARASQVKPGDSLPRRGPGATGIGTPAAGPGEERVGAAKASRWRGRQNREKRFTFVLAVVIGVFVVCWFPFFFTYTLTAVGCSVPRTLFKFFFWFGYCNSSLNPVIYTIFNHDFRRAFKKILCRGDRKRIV
# Description: Antagonist activity at human adrenoceptor aplha 2A expressed in CHO cells assessed as inhibition of clonidine-induced response by cytosensor microphysiometric analysis
# [4] = biological target: T1, Alpha-2B adrenergic receptor; test: Displacement of [3H]RS-79948-197 from human adrenoceptor aplha 2B expressed in CHO cells; type: cell-based
# [5] = biological target: T4, Alpha-2C adrenergic receptor (Homo sapiens) (UniProt P18825); test: Intrinsic activity at human adrenoceptor aplha 2C expressed in CHO cells by cytosensor microphysiometric analysis relative to (-)-noradrenaline; type: cell-based
# T4 sequence (whole entry): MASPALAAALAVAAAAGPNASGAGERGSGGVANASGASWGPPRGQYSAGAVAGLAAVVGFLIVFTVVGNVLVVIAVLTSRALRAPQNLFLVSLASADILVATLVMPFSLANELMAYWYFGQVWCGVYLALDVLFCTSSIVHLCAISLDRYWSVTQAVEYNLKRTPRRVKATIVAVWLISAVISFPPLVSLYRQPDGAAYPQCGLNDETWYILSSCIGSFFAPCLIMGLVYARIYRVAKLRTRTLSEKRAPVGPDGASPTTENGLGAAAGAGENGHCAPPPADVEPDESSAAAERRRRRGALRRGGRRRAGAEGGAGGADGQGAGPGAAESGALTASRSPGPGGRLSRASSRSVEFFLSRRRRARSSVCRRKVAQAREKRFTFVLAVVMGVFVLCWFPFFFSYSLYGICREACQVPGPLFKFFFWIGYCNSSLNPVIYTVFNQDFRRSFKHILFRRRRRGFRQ
# [6] = biological target: T5, Alpha-2A adrenergic receptor (Homo sapiens, UniProt P08913); test: Displacement of [3H]RS-79948-197 from human adrenoceptor aplha 2A expressed in CHO cells; type: cell-based
# T5 sequence (P08913 whole entry): T3 sequence (whole entry)
# [7] = biological target: T6, Alpha-2C adrenergic receptor (Homo sapiens, UniProt P18825); test: Agonist activity at human adrenoceptor aplha 2C expressed in CHO cells assessed as rate of extracellular acidification by cytosensor microphysiometric analysis; type: functional, cell-based
# T6 sequence (P18825 whole entry): T4 sequence (whole entry)
# [8] = biological target: T6, Alpha-2C adrenergic receptor; test: Displacement of [3H]RS-79948-197 from human adrenoceptor aplha 2C expressed in CHO cells; type: cell-based
# [9] = biological target: T5, Alpha-2A adrenergic receptor; test: Agonist activity at human adrenoceptor aplha 2A expressed in CHO cells assessed as rate of extracellular acidification by cytosensor microphysiometric analysis; type: functional, cell-based
SMILES,EC50 [1] [nM],Intrinsic activity [2],pKb [3],Ki [4] [nM],Intrinsic activity [5],Ki [6] [nM],EC50 [7] [nM],Ki [8] [nM],EC50 [9] [nM]
CC(Oc1ccccc1Br)C1=NCCN1 (centres undefined),316,0.4,7.04,355,0.87,22.9,10,282,
CCc1ccccc1OC(C)C1=NCCN1 (centres undefined),10000,0.5,6,282,0.6,24,100,288,
CC(Oc1ccccc1S(C)(=O)=O)C1=NCCN1 (centres undefined),10000,0.45,,51300,0.6,3160,316,3800,562
CC(Oc1ccccc1OC1CC1)C1=NCCN1 (centres undefined),12900,0.6,6.9,1050,0.7,83.2,47.9,676,
CC(Oc1c(-c2ccccc2)cccc1-c1ccccc1)C1=NCCN1 (centres undefined),200,0.6,8,4570,0.7,490,79.4,631,
CCc1cccc(CC)c1OC(C)C1=NCCN1 (centres undefined),1000,0.8,,269,0.65,31.6,27.5,275,11.7
CC(Oc1ccccc1C=O)C1=NCCN1 (centres undefined),316,0.5,,2090,0.6,1050,100,8710,31.6
CCOc1ccccc1OC(C)C1=NCCN1 (centres undefined),3160,0.5,6.5,1320,0.45,97.7,10000,759,
CC(Oc1ccccc1CC1CC1)C1=NCCN1 (centres undefined) [CYCLOMETHYLINE],3310,0.7,,407,0.8,36.3,2,275,
C=CCc1cccc(CC=C)c1OC(C)C1=NCCN1 (centres undefined),501,0.65,8.56,275,0.9,16.6,56.2,129,
CC(Oc1c(Cl)cccc1Cl)C1=NCCN1 (centres undefined) [LOFEXIDINE],126,0.8,,67.6,0.8,,1.38,69.2,
CC(C)Oc1ccccc1OC(C)C1=NCCN1 (centres undefined),1740,0.5,6.82,1580,0.7,83.2,100,398,
CC(Oc1ccccc1Cl)C1=NCCN1 (centres undefined),162,0.44,7.2,331,0.83,28.8,166,490,
C=C(C)c1ccccc1OC(C)C1=NCCN1 (centres undefined),1580,0.4,7,871,0.71,72.4,115,603,
C=COc1ccccc1OC(C)C1=NCCN1 (centres undefined),3160,0.45,5,,0.48,,631,,
CC(=O)c1ccccc1OC(C)C1=NCCN1 (centres undefined),295,0.6,,6170,0.65,1020,200,7410,63.1
COc1ccccc1OC(C)C1=NCCN1 (centres undefined),100000,0.5,6.6,871,0.6,57.5,9770,832,
CC(Oc1ccccc1C(F)(F)F)C1=NCCN1 (centres undefined),240,0.4,6.42,1620,0.72,182,794,977,
CC(Oc1ccccc1C(C)C)C1=NCCN1 (centres undefined),251,0.54,6.82,933,0.73,72.4,398,457,
Cc1cccc(C)c1OC(C)C1=NCCN1 (centres undefined),1480,0.8,,182,0.82,11.7,27.5,251,18.6
